Laboratory results taken from patent publication EP0873397B1, “NOVEL MICROORGANISM AND METHOD FOR ENVIRONMENTAL PURIFICATION USING THE SAME” (priority 1996, dated 1998).

Test: Analysis of byproducts in soil after trichloroethylene decomposition by UV-sterilized bacterial mass
Procedure: After plating the suspension of the bacterial mass onto a petri dish to a thickness of about 1 mm, and then sterilized under irradiation of a 15 W ultra violet lamp with a wavelength of 260 nm for not less than 60 seconds at a distance of 40 cm from the light source.
After that, trichloroethylene in the soil was allowed to be decomposed and the byproducts which is believed to be formed in association with trichloroethylene decomposition were analyzed in a similar manner to Example 13. Furthermore, in an experiment in which the suspension of sterilized bacterial mass at an amount of 1/100 of that of the NYG medium was inoculated or the suspension was plated as it was onto the NYG agar medium and cultured at 30°C, neither increase in turbidity of the culture liquid nor colony formation were observed, and thereby it was confirmed that there was complete sterilization.

## OCC(Cl)(Cl)Cl [Trichloroethanol]
  Result (byproduct in the soil): Not detected
